Remaining activity data for 21 compounds are collected here from US10975083B2, “Blood-brain barrier-penetrant dopamine-β-hydroxylase inhibitors” (BIAL—PORTELA & Cᵃ, S.A., priority 2016, dated 2021).

This test concerns the target T1, DβH (Homo sapiens, UniProt P09172).
T1 construct: reaction mixture (total volume 500 μl) contained: cellular homogenate (75 μg total protein); host or cells: SK-N-SH cell homogenate
T1 sequence (P09172 1-617): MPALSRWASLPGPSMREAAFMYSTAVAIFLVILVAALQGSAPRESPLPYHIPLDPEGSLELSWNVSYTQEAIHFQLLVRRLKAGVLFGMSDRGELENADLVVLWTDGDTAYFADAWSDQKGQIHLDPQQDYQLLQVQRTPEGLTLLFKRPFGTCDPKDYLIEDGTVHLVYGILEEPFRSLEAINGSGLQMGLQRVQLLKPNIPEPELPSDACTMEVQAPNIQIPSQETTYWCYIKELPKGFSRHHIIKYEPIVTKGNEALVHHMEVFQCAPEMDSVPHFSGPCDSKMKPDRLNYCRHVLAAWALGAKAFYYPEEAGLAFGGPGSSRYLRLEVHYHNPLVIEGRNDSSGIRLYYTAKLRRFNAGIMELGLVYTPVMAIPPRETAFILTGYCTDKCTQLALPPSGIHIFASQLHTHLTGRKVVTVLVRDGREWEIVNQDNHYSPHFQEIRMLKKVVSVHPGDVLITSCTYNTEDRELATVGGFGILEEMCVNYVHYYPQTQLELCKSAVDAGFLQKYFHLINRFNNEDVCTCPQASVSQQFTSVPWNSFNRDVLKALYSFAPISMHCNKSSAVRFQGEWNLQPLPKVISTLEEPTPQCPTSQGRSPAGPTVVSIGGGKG
Kind of test: DβH inhibition cell assay (SK-N-SH cellular homogenates, tyramine to octopamine). The format is biochemical. To be noted: for remaining activity at 0.1 µM: inhibitor 0.1 μM, read-out: DβH activity in % of Ctrl (0.1 μM); for remaining activity at 1 µM: read-out: DβH activity in % of Ctrl (1 μM). On the procedure: The ability of a compound to inhibit DβH activity may be assessed using the following cell assay. […] . […] Fetal bovine serum was removed from cells for 4 h prior to collection.
For the preparation of cellular homogenates, media was removed and cell monolayers were washed with 50 mM Tris-HCl pH 7.4. Cells were subsequently scrapped off the flasks and were resuspended in 50 mM Tris pH 7.4. Cell suspensions were homogenized with SilentCrusher M (Heidolph) for a short stroke and resultant homogenates were aliquoted and stored frozen at −80° C.
Total protein was quantified in cellular homogenates with BioRad Protein Assay (BioRad) using a standard curve of BSA (50-250 μg/mL).
DβH activity was measured by a modification of the method of Nagatsu and Udenfriend (Nagatsu, T. and S. Udenfriend: “Photometric assay of dopamine-hydroxylase activity in human blood.” Clin. Chem. 18(9): 980-3, 1972) which is based on the enzymatic hydroxylation of tyramine into octopamine. The octopamine formed is subsequently oxidized to p-hydroxybenzaldehyde and measured by spectrophotometry. In brief, reaction mixture (total volume 500 μl) contained: cellular homogenate (75 μg total protein) sodium acetate pH 5.0 (200 mM), NEM (30 mM), CuSO4 (5 μM), catalase aqueous solution (0.5 mg/mL), pargyline-HCl (1 mM), sodium fumarate (10 mM), ascorbic acid (10 mM), inhibitor or vehicle and tyramine (25 mM). After a 10 min pre-incubation period at 37° C., the reaction was initiated by the addition of tyramine. Reaction was carried out for 45 min at 37° C. before termination with 50 μl PCA (2 M).
Samples were centrifuged for 3 min at 16100 g and supernatants were subjected to solid phase extraction. Solid phase extraction was performed using either SPE cartridges ISOLUTE SCX-3 (100 mg, 1 mL) or SPE 2 mL fixed 96 well plates ISOLUTE SCX-3 (100 mg) previously equilibrated with MilliQ water. Columns/plates were centrifuged at 150 g for 2 min. Eluate was discarded and matrix was washed with 1 mL of MilliQ water after which octopamine was eluted with 2×0.25 mL ammonium hydroxide (4 M). The oxidation of octopamine to p-hydroxybenzaldehyde was carried out for 6 min with 100 μl sodium periodate (2%) and was stopped with 100 μl sodium metabisulfite (10%). Absorbance was measured at 330 nm on a Spectramax microplate reader (Molecular Devices, Sunnyvale, Calif.). All enzymatic reactions were performed in duplicate. Results are reported in the table below as activity in % of control at the inhibitor concentration tested.

The mark [1] stands for this setting: inhibitor 1 μM, SK-N-SH cell homogenate.

Where two headings read alike, the source gives them in different places.

For `Fc1ccc(Cl)c(F)c1[C@]12C[C@H]1c1n[nH]c(=S)n1C2` [Example 88, (5aS,6aR)-5a-(3-chloro-2,6-difluorophenyl)-5,5a,6,6a-tetrahydrocyclopropa[3,4]pyrrolo[2,1-c][1,2,4]triazole-3(2H)-thione], where the note is “SK-N-SH cell homogenate”, the remaining activity at 0.1 µM worked out at 45.8%. Besides, the remaining activity at 1 µM under setting [1] came out at 6.2%.

On to `Fc1cccc(Cl)c1[C@]12C[C@H]1c1c[nH]c(=S)n1C2` [Example 89, (5aS,6aR)-5a-(2-chloro-6-fluorophenyl)-5,5a,6,6a-tetrahydrocyclopropa[3,4]pyrrolo[1,2-c]imidazole-3 (2H)-thione], for which the remaining activity at 1 µM under setting [1] came to 29.8%.

As to `Fc1ccc(Cl)c(F)c1[C@]12C[C@H]1c1c[nH]c(=S)n1C2` [Example 90, (5aS,6aR)-5a-(3-chloro-2,6-difluorophenyl)-5,5a,6,6a-tetrahydrocyclopropa[3,4]pyrrolo[1,2-c]imidazole-3 (2H)-thione], the remaining activity at 0.1 µM (SK-N-SH cell homogenate) worked out at 1.8%. Moreover, under setting [1], the remaining activity at 1 µM turned out to be 1%.

For the compound `[2H]C1([2H])n2c(c[nH]c2=S)[C@@H]2C[C@@]21c1cc(Cl)ccc1F` [Example 91, (5aS,6aR)-5a-(5-chloro-2-fluorophenyl)-5,5a,6,6a-tetrahydrocyclopropa[3,4]pyrrolo[1,2-c]imidazole-3(2H)-thione-5,5-d2], for the setting “SK-N-SH cell homogenate”, the remaining activity at 0.1 µM amounted to 22%. Further, under setting [1], the remaining activity at 1 µM was 0%.

For the compound `Fc1c(Cl)cccc1[C@]12C[C@H]1c1c[nH]c(=S)n1C2` [Example 92, (5aS,6aR)-5a-(3-chloro-2-fluorophenyl)-5,5a,6,6a-tetrahydrocyclopropa[3,4]pyrrolo[1,2-c]imidazole-3 (2H)-thione], the remaining activity at 0.1 µM (SK-N-SH cell homogenate) amounted to 2%. For the same compound, under setting [1], the remaining activity at 1 µM was found to be 0%.

With `Fc1ccc(Br)cc1[C@]12C[C@H]1c1c[nH]c(=S)n1C2` [Example 93, (5aS,6aR)-5a-(5-bromo-2-fluorophenyl)-5,5a,6,6a-tetrahydrocyclopropa[3,4]pyrrolo[1,2-c]imidazole-3 (2H)-thione], the remaining activity at 0.1 µM (SK-N-SH cell homogenate) was determined as 0%. For the same compound, the remaining activity at 1 µM under setting [1] came to 0%.

Turning to `Fc1cc(Br)cc([C@]23C[C@H]2c2c[nH]c(=S)n2C3)c1` [Example 94, (5aS,6aR)-5a-(3-bromo-5-fluorophenyl)-5,5a,6,6a-tetrahydrocyclopropa[3,4]pyrrolo[1,2-c]imidazole-3 (2H)-thione], the remaining activity at 0.1 µM (SK-N-SH cell homogenate) is 18.1%. The remaining activity at 1 µM under setting [1] amounted to 0%.

In the case of `Cc1[nH]c(=S)n2c1C[C@@H](c1cc(F)cc(F)c1)C2` [Example 95, (S)-6-(3,5-difluorophenyl)-1-methyl-2,5,6,7-tetrahydro-3H-pyrrolo[1,2-c]imidazole-3-thione], the remaining activity at 1 µM is 28.9%.

With `Cc1[nH]c(=S)n2c1C[C@H](c1c(F)c(F)cc(F)c1F)C2` [Example 96, (R)-1-methyl-6-(2,3,5,6-tetrafluorophenyl)-2,5,6,7-tetrahydro-3H-pyrrolo[1,2-c]imidazole-3-thione], under “SK-N-SH cell homogenate”, the remaining activity at 0.1 µM was 32%. In addition, the remaining activity at 1 µM under setting [1] is 15%.

As for `Cc1[nH]c(=S)n2c1C[C@@H](c1c(F)c(F)cc(F)c1F)C2` [Example 97, (S)-1-methyl-6-(2,3,5,6-tetrafluorophenyl)-2,5,6,7-tetrahydro-3H-pyrrolo[1,2-c]imidazole-3-thione], the remaining activity at 0.1 µM (SK-N-SH cell homogenate) is 41.9%. Moreover, the remaining activity at 1 µM under setting [1] was determined as 7.9%.

For `Cc1[nH]c(=S)n2c1C[C@@H](c1c(F)cccc1F)C2` [Example 98, (S)-6-(2,6-difluorophenyl)-1-methyl-2,5,6,7-tetrahydro-3H-pyrrolo[1,2-c]imidazole-3-thione], the remaining activity at 1 µM under setting [1] is 39.9%.

`Cc1[nH]c(=S)n2c1[C@@H]1C[C@]1(c1cc(Cl)ccc1F)C2` [Example 99, (5aS,6aR)-5a-(5-chloro-2-fluorophenyl)-1-methyl-5,5a,6,6a-tetrahydrocyclopropa[3,4]pyrrolo[1,2-c]imidazole-3 (2H)-thione]: the remaining activity at 0.1 µM (SK-N-SH cell homogenate) worked out at 31.6%. Under setting [1], the remaining activity at 1 µM is 1%.

Regarding `[2H]C([2H])([2H])c1[nH]c(=S)n2c1[C@@H]1C[C@]1(c1cc(Cl)ccc1F)C2` [Example 100, (5aS,6aR)-5a-(5-chloro-2-fluorophenyl)-1-(methyl-d3)-5,5a,6,6a-tetrahydrocyclopropa[3,4]pyrrolo[1,2-c]imidazole-3 (2H)-thione], the remaining activity at 0.1 µM (SK-N-SH cell homogenate) amounted to 0%. Besides, the remaining activity at 1 µM under setting [1] came out at 0%.

For the compound `[2H]C([2H])([2H])n1cc2n(c1=S)C[C@@]1(c3cc(Cl)ccc3F)C[C@@H]21` [Example 101, (5aS,6aR)-5a-(5-chloro-2-fluorophenyl)-2-(methyl-d3)-5,5a,6,6a-tetrahydrocyclopropa[3,4]pyrrolo[1,2-c]imidazole-3 (2H)-thione], the remaining activity at 0.1 µM (SK-N-SH cell homogenate) stood at 14.5%. Also, the remaining activity at 1 µM under setting [1] stood at 0%.

As for `[2H]C1([2H])C2([2H])c3c[nH]c(=S)n3CC12c1cc(Cl)ccc1F` (stereo not drawn) [Example 102, 5a-(5-chloro-2-fluorophenyl)-5,5a,6,6a-tetrahydrocyclopropa[3,4]pyrrolo[1,2-c]imidazole-3(2H)-thione-6,6,6a-d3], the remaining activity at 0.1 µM (SK-N-SH cell homogenate) turned out to be 32%. Besides, the remaining activity at 1 µM under setting [1] was 0%.

With `Fc1ccc(Cl)c(F)c1[C@@]12C[C@@H]1c1c[nH]c(=S)n1C2` [Example 103, (5aR,6aS)-5a-(3-chloro-2,6-difluorophenyl)-5,5a,6,6a-tetrahydrocyclopropa[3,4]pyrrolo[1,2-c]imidazole-3 (2H)-thione], for the setting “SK-N-SH cell homogenate”, the remaining activity at 0.1 µM came to 63.4%. Also, under setting [1], the remaining activity at 1 µM was determined as 10.3%.

With `Cc1[nH]c(=S)n2c1C[C@H](c1c(F)ccc(Cl)c1F)C2` [Example 104, (R)-6-(3-chloro-2,6-difluorophenyl)-1-methyl-2,5,6,7-tetrahydro-3H-pyrrolo[1,2-c]imidazole-3-thione], the remaining activity at 0.1 µM (SK-N-SH cell homogenate) is 47.5%. In addition, the remaining activity at 1 µM under setting [1] is 6%.

As for `Cc1[nH]c(=S)n2c1C[C@@H](c1c(F)ccc(Cl)c1F)C2` [Example 105, (S)-6-(3-chloro-2,6-difluorophenyl)-1-methyl-2,5,6,7-tetrahydro-3H-pyrrolo[1,2-c]imidazole-3-thione], where the note is “SK-N-SH cell homogenate”, the remaining activity at 0.1 µM was determined as 17.4%. Besides, under setting [1], the remaining activity at 1 µM turned out to be 0%.

For `Fc1cc(F)cc([C@]23C[C@H]2Cc2c[nH]c(=S)n2C3)c1` [Example 106, (5aS,6aS)-5a-(3,5-difluorophenyl)-2,5,5a,6,6a,7-hexahydro-3H-cyclopropa[d]imidazo[1,5-a]pyridine-3-thione], the remaining activity at 1 µM was found to be 16.3%.

For the compound `C[C@@H]1c2c[nH]c(=S)n2C[C@H]1c1c(F)c(F)cc(F)c1F` [Example 107, (6R,7S)-7-methyl-6-(2,3,5,6-tetrafluorophenyl)-2,5,6,7-tetrahydro-3H-pyrrolo[1,2-c]imidazole-3-thione], the remaining activity at 1 µM under setting [1] was found to be 54.7%.

As for `C[C@H]1c2c[nH]c(=S)n2C[C@H]1c1c(F)c(F)cc(F)c1F` [Example 108, (6R,7R)-7-methyl-6-(2,3,5,6-tetrafluorophenyl)-2,5,6,7-tetrahydro-3H-pyrrolo[1,2-c]imidazole-3-thione], under setting [1], the remaining activity at 1 µM was found to be 38.8%.
